According to patent US20070167408A1, “NOVEL ALKYL PHOSPHOLIPID DERIVATIVES WITH REDUCED CYTOTOXICITY AND USES THEREOF” (ZENTARIS GmbH, priority 2005, published 2007):
In brackets after ≈: the same amount, converted by molar mass.

Legend:
[1] = tested on: Streptococcus pneumoniae DSM 20566 (ATCC 33400); test: Anti-bacterial bouillon microdilution assay (MIC), bacterium A; assay type: cell-based; conditions: Streptococcus pneumoniae DSM 20566, 24 h
Procedure: (§1) Selected compounds of the invention were tested in a bouillon microdilution assay method according to the DIN 58940 (www.din.de) guidelines for determination of susceptibility of bacterial strains with regard to cell growth inhibition. The assay method quantifies bacterial cell growth which corresponds to the turbidity of the liquid culture medium by photometric measurement carried out at 595 nm.
(§2) The method of MIC determination was performed according to DIN 58940-5. The volumina were adapted according to the microdilution method as described in DIN 58940-7 guideline.
(§3) Dependent on water solubility, compounds of the invention were dissolved either in water or ethanol in a concentration of 10 mg/ml. Subsequently, the stock was further diluted in water to a concentration of 512 μg/ml. The following serial dilutions (factor 2) were performed in water resulting in the following […] testing concentrations: 256 μg/ml, 128 μg/ml, 64 μg/ml, 32 μg/ml, 16 μg/ml, 8 μg/ml, 4 μg/ml, 2 μg/ml, 1 μg/ml, 0.5 μg/ml, 0.25 μg/ml and 0.125 μg/ml. Diluted compounds of the invention were transferred in 100 μl volume to the microtiter plate wells.
(§4) Pre-cultures of bacteria were grown in appropriate liquid media (refer to ATCC webpage, www.atcc.org) and afterwards were inoculated in corresponding liquid medium. 100 μl of the inoculums [adjusted to an amount of app. 1×10^6 microorganisms per ml (range of 10^5-10^8 microorganisms per ml)] were added to each of the testing compound concentrations and cultivated under the appropriate conditions.
(§5) Before and after incubation, bacterial growth was determined by photometric analysis against a positive control containing growing bacteria without compound and a sterile/negative control containing only the medium.

[2] = tested on: Streptococcus pneumoniae DSM 11967 (ATCC 49619); test: Anti-bacterial bouillon microdilution assay (MIC), bacterium B; assay type: cell-based; conditions: Streptococcus pneumoniae DSM 11967, 24 h
Procedure: as §1, §2, §3, §4, §5

[3] = tested on: SKOV-3 (human ovary adenocarcinoma) cells; test: XTT cytotoxicity assay, SKOV-3 cells; assay type: cell-based; conditions: Homo sapiens, SK-OV-3, second set of experiments, read-out: SKOV-3 % INH [100 μM]
Procedure: On the first day of the experiment cells were harvested from exponential phase cultures by trypsination, counted and plated into 96 well flat-bottom micro titer plates depending on the cell line as listed below: [table] After a 24 h recovery to allow the cells to resume exponential growth, the test compounds were diluted immediately prior to use and transferred in 25 μl volume to the wells. Following 2 days of continuous drug exposure 50 μl of freshly prepared XTT-PMS solution {2% 0.386 mg/ml PMS (N-Methyl Dibenzopyrazine Methylsulphate; Sigma, Cat. No. […] Serva, Cat. No. 38450) in RPMI 1640 medium without phenol red} was added to the wells. To measure the proportion of living cells, the cells were incubated for 3 h with XTT-PMS reagent at 37° C., 5% CO2, humidified atmosphere allowing to form the formazan salt. […] Inhibition curves were generated and IC50 values calculated by using GraphPad Prism.

[4] = tested on: PC3 (human prostate carcinoma) cells; test: XTT cytotoxicity assay, PC3 cells; assay type: cell-based; conditions: Homo sapiens, PC-3; 31.6 μM, second set of experiments; read-out: PC3 % INH [31.6 μM]
Method in brief: (§6)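 Cells recovered 24 h after plating, then exposed to compounds for 48 h at 37 °C; one set used 10 semi-log concentrations from 100 μM, another 31.6 μM final for PC3 and RKOp21. XTT-PMS added for 3 h, formazan absorbance at 490 nm versus untreated cells; IC50 from inhibition curves.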

[5] = tested on: Moraxella catarrhalis DMS 11994 (ATCC 43617); test: Anti-bacterial bouillon microdilution assay (MIC), bacterium D; assay type: cell-based; conditions: ATCC43617, 24 h
Method in brief: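 Broth microdilution MIC per DIN 58940-5/-7. Twofold compound dilutions in water spanned 256 to 0.125 μg/ml in the test concentration series, with inocula of about 1×10^6 organisms/ml in strain-appropriate media. Growth was read as turbidity at 595 nm before and after incubation, against growth and sterile controls.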

[6] = tested on: RKOp21 (human colon adenocarcinoma) cells; test: XTT cytotoxicity assay, RKOp21 cells; assay type: cell-based; conditions: Homo sapiens; 31.6 μM, second set of experiments; read-out: RKOp21 % INH [31.6 μM]
Method in brief: as §6

[7] = tested on: PC3, RKOp21 and SKOV-3 cell lines; test: XTT cytotoxicity assay, mean over all three cell lines; assay type: cell-based, human; conditions: mean value over all three cell lines
Procedure: Following 2 days of continuous drug exposure 50 μl of freshly prepared XTT-PMS solution {2% 0.386 mg/ml PMS (N-Methyl Dibenzopyrazine Methylsulphate; Sigma, Cat. No. […] Serva, Cat. No. 38450) in RPMI 1640 medium without phenol red} was added to the wells. To measure the proportion of living cells, the cells were incubated for 3 h with XTT-PMS reagent at 37° C., 5% CO2, humidified atmosphere allowing to form the formazan salt. […] Inhibition curves were generated and IC50 values calculated by using GraphPad Prism. In the following table 7 cytotoxicity results (% inhibition of cell growth) obtained in the second set of experiments for selected compounds of the invention are presented in comparison to examples of the prior art (perifosine, miltefosine). The results presented are individual values for the respective cell line as well as the mean value over all three cell lines tested.

[8] = tested on: Enterococcus faecium DSM 20477 (ATCC 19434); test: Anti-bacterial bouillon microdilution assay (MIC), bacterium C; assay type: cell-based; conditions: Enterococcus faecium DSM 20477, 24 h
Procedure: as §1, §2
as §3, with “wells. […]” for “wells.”
as §5

[9] = tested on: Bacteroides fragilis DSM 2151 (ATCC 25285); test: Anti-bacterial bouillon microdilution assay (MIC), bacterium E; assay type: cell-based; conditions: anaerob, 24 h
Procedure: as §1, §2, §3, §4, §5

Leishmaniasis = conditions: clinical phase III trials, parenteral; cited from earlier work

| MIC [1] [µg/mL] | MIC [2] [µg/mL] | MIC [5] [µg/mL] | MIC [8] [µg/mL] | MIC [9] [µg/mL] | SMILES | inhibition at 100 µM [3] [%] | inhibition at 31.6 µM [4] [%] | inhibition at 31.6 µM [6] [%] | Mean % INH [7] [%] | efficient in % of the cases (Leishmaniasis) [%] |
| --- | --- | --- | --- | --- | --- | --- | --- | --- | --- | --- |
| 8 (≈ 17.3 µM) | 4 (≈ 8.66 µM) | 4 (≈ 8.66 µM) |  |  | CCCCCCCCCCCCCCCCOP(=O)([O-])OCC[N+]1(C)CCCCCC1 [Compound 89, Phosphoric acid hexadecyl ester 2-(1-methyl-azepan-1-yl)-ethyl ester] | 26.1 | 50.6 | 11.3 | 29.3 |  |
| 8 (≈ 17 µM) | 4 (≈ 8.52 µM) | 4 (≈ 8.52 µM) | 8 (≈ 17 µM) | 64 (≈ 136 µM) | CCCCCCCCCCCCCCCCOP(=O)([O-])OCC[N+](C)(C)c1ccccc1 [Compound 107, Phosphoric acid hexadecyl ester 2-(N-phenyl-N,N-dimethyl-amino)-ethyl ester] |  |  |  |  |  |
|  |  |  |  |  | NC[C@@H]1O[C@H](O[C@H]2[C@@H](O)[C@H](O[C@@H]3[C@@H](O)[C@H](N)C[C@H](N)[C@H]3O[C@H]3O[C@H](CO)[C@@H](O)[C@H](O)[C@H]3N)O[C@@H]2CO)[C@H](N)[C@@H](O)[C@@H]1O [paromomycin, O-2-amino-2-deoxy-alpha-D-glucopyranosyl-(1-4)-O-[O-2,6-diamino-2,6-dideoxy-beta-L-idopyranosyl-(1-3)-beta-D-ribofuranosyl-(1-5)]-2-deoxy-D-streptamine] |  |  |  |  | 95 |
